Source: PubChem BioAssay (NCI)
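Results reflect a 48-hour exposure of cells in 96-well plates to compound at five concentrations. GI50 marks 50% less growth. At the TGI there is no net growth.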

What was measured:
Test in all cases: NCI tumour cell line growth inhibition, 48 h
HT29 colon = tested on: HT29 colon
CAKI-1 renal = tested on: CAKI-1 renal
A549 NSCLC = tested on: A549 NSCLC
HOP-62 NSCLC = tested on: HOP-62 NSCLC
HS 578T breast = tested on: HS 578T breast
786-0 renal = tested on: 786-0 renal
NCI-H460 lung = tested on: NCI-H460 lung
SNB-75 CNS = tested on: SNB-75 CNS
SK-MEL-2 melanoma = tested on: SK-MEL-2 melanoma
SK-OV-3 ovarian = tested on: SK-OV-3 ovarian
SW-620 colon = tested on: SW-620 colon
TK-10 renal = tested on: TK-10 renal
HCT-15 colon = tested on: HCT-15 colon
SK-MEL-5 melanoma = tested on: SK-MEL-5 melanoma
BT-549 breast = tested on: BT-549 breast
MALME-3M melanoma = tested on: MALME-3M melanoma
MDA-MB-231 breast = tested on: MDA-MB-231 breast
IGROV1 ovarian = tested on: IGROV1 ovarian
OVCAR-5 ovarian = tested on: OVCAR-5 ovarian
OVCAR-4 ovarian = tested on: OVCAR-4 ovarian
SF-295 CNS = tested on: SF-295 CNS
OVCAR-8 ovarian = tested on: OVCAR-8 ovarian
COLO 205 colon = tested on: COLO 205 colon
K-562 leukemia = tested on: K-562 leukemia
ACHN renal = tested on: ACHN renal
OVCAR-3 ovarian = tested on: OVCAR-3 ovarian
LOX IMVI melanoma = tested on: LOX IMVI melanoma
HOP-92 NSCLC = tested on: HOP-92 NSCLC

Structure (SMILES): O=C(/C=C/c1ccccc1)c1nc2ccccc2n1Cc1ccc(Br)cc1
- GI50 (HT29 colon): 2.91 µM
- TGI (HT29 colon): 7.34 µM
- GI50 (CAKI-1 renal): 2.6 µM
- TGI (CAKI-1 renal): 11.2 µM
- GI50 (A549 NSCLC): 3.51 µM
- TGI (A549 NSCLC): 20.4 µM
- GI50 (HOP-62 NSCLC): 2.21 µM
- TGI (HOP-62 NSCLC): 5.09 µM
- GI50 (HS 578T breast): 4.22 µM
- TGI (HS 578T breast): 53.4 µM
- GI50 (786-0 renal): 1.79 µM
- TGI (786-0 renal): 3.34 µM
- GI50 (NCI-H460 lung): 1.8 µM
- TGI (NCI-H460 lung): 3.64 µM
- GI50 (SNB-75 CNS): 3.83 µM
- TGI (SNB-75 CNS): 22.1 µM
- GI50 (SK-MEL-2 melanoma): 2.23 µM
- TGI (SK-MEL-2 melanoma): 5.08 µM
- GI50 (SK-OV-3 ovarian): 13.2 µM
- TGI (SK-OV-3 ovarian): 57.6 µM
- GI50 (SW-620 colon): 2 µM
- TGI (SW-620 colon): 4.09 µM
- GI50 (TK-10 renal): 2.57 µM
- TGI (TK-10 renal): 7.63 µM
- GI50 (HCT-15 colon): 1.67 µM
- TGI (HCT-15 colon): 3.47 µM
- GI50 (SK-MEL-5 melanoma): 2.44 µM
- TGI (SK-MEL-5 melanoma): 6.95 µM
- GI50 (BT-549 breast): 1.93 µM
- TGI (BT-549 breast): 4.7 µM
- GI50 (MALME-3M melanoma): 1.94 µM
- TGI (MALME-3M melanoma): 4.63 µM
- GI50 (MDA-MB-231 breast): 2.26 µM
- TGI (MDA-MB-231 breast): 5.16 µM
- GI50 (IGROV1 ovarian): 2.32 µM
- TGI (IGROV1 ovarian): 5.53 µM
- GI50 (OVCAR-5 ovarian): 2.2 µM
- TGI (OVCAR-5 ovarian): 4.54 µM
- GI50 (OVCAR-4 ovarian): 8.7 µM
- TGI (OVCAR-4 ovarian): 81.5 µM
- GI50 (SF-295 CNS): 2.22 µM
- TGI (SF-295 CNS): 5.25 µM
- GI50 (OVCAR-8 ovarian): 2.84 µM
- TGI (OVCAR-8 ovarian): 8.8 µM
- GI50 (COLO 205 colon): 2.36 µM
- TGI (COLO 205 colon): 5 µM
- GI50 (K-562 leukemia): 2.39 µM
- TGI (K-562 leukemia): 6.6 µM
- GI50 (ACHN renal): 3.12 µM
- TGI (ACHN renal): 10.1 µM
- GI50 (OVCAR-3 ovarian): 2.28 µM
- TGI (OVCAR-3 ovarian): 5.56 µM
- GI50 (LOX IMVI melanoma): 1.65 µM
- TGI (LOX IMVI melanoma): 3.12 µM
- GI50 (HOP-92 NSCLC): 1.92 µM
- TGI (HOP-92 NSCLC): 8.58 µM
